How the values were obtained:
PRMT1 = PRMT1 (Homo sapiens, UniProt Q99873); assay: PRMT1 enzyme inhibition; format: biochemical; details: read-out: Ki PRMT1; competitive inhibitors
[1] = target: T1, CARM1 (also known as PRMT4) (Homo sapiens, UniProt Q86X55); assay: CARM1 enzyme inhibition; format: biochemical; details: read-out: Ki CARM1; competitive inhibitors
T1 sequence (Q86X55 1-608): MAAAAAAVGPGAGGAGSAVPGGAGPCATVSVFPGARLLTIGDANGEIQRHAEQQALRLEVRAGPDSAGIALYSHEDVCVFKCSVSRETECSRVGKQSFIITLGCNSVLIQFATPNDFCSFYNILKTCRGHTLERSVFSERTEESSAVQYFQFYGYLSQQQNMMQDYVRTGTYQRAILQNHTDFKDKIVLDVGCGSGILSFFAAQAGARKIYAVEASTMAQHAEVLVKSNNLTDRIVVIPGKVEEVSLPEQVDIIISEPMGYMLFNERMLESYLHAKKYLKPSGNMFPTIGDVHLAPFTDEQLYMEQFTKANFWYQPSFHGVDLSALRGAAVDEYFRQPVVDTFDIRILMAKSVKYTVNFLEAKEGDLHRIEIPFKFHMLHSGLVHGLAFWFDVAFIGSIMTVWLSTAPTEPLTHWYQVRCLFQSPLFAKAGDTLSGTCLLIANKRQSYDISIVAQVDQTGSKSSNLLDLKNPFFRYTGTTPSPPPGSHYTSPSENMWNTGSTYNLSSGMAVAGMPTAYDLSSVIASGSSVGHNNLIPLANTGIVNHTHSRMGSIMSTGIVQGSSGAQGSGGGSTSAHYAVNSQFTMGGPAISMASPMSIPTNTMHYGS

G9a = target: T2, G9a (Homo sapiens, UniProt Q96KQ7); assay: G9a enzyme inhibition; format: biochemical
T2 sequence (Q96KQ7 1-1210): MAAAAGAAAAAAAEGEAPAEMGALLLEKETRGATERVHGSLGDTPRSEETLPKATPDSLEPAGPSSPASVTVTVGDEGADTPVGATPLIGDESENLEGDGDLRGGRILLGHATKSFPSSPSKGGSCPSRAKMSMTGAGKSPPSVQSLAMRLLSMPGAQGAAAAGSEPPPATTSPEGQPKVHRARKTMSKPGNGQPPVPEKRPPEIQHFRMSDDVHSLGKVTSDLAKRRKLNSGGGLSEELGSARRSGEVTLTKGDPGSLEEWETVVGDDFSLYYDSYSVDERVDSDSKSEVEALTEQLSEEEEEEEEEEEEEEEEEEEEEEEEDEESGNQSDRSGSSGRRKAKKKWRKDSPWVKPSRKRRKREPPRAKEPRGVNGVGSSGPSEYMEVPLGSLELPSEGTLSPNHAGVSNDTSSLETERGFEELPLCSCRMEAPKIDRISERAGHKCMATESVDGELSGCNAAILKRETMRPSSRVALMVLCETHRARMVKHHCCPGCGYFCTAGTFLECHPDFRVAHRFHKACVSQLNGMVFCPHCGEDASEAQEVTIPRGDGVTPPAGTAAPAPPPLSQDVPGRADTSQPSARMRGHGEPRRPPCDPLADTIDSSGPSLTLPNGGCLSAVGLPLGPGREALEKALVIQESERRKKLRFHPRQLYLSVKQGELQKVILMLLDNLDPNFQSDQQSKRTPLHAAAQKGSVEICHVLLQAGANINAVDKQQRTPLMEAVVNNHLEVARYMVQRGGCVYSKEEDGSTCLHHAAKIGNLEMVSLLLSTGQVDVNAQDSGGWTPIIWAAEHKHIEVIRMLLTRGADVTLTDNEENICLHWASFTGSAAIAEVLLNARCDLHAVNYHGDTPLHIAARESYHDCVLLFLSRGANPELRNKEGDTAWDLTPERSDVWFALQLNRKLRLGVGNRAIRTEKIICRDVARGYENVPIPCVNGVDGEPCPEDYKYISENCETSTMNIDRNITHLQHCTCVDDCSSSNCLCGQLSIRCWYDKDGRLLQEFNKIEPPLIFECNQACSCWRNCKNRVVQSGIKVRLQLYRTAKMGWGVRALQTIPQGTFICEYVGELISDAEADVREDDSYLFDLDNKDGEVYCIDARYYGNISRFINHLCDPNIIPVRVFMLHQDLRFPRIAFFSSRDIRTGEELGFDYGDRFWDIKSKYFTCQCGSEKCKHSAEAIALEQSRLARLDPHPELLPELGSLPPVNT

SAH hydrolase = details: in cells / in vivo; cited from earlier work

Sequence of PRMT1 (Q99873 whole entry, species assumed): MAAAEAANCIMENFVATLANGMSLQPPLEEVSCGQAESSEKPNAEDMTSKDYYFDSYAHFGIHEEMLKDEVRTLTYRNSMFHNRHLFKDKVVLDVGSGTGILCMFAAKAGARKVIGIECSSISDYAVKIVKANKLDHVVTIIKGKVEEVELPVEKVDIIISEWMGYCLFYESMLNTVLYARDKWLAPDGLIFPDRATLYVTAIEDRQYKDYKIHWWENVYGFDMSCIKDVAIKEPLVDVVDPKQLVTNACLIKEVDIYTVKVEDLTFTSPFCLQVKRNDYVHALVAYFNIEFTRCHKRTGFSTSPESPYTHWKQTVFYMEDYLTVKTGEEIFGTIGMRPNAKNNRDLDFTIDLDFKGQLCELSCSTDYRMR

Structure (SMILES) | Ki (PRMT1) [µM] | Ki [1] [µM] | activity on G9a (G9a) | Ki (G9a; read-out: Ki G9a, competitive inhibitors) [µM] | degradation to adenosine and homocysteine by SAH hydrolase (SAH hydrolase)
N[C@@H](CCSC[C@H]1O[C@@H](n2cnc3c(NCc4ccccc4)ncnc32)[C@H](O)[C@@H]1O)C(=O)O [Compound 2, N6-benzyl-SAH] | 21.2 | 18 | inactive | > 100 | 
Nc1ncnc2c1ncn2[C@@H]1O[C@H](CSCC[C@H](N)C(=O)O)[C@@H](O)[C@H]1O [SAH, S-(5'-adenosyl)-L-homocysteine] |  |  |  |  | quickly degraded

— paper PMC3492951 (Journal of the American Chemical Society, 2011)
